1 compound from patent US20250276994A1, “CAP ANALOG FOR THE 5'-END OF EUKARYOTIC MESSENGER RNAS” (WESTFÄLISCHE WILHELMS-UNIVERSITÄT, priority 2021, published 2025) can be followed below.

Each structure is given as a SMILES string.

For data set [1], the system named is HeLa cells. The data set is described as follows: Cell viability after irradiation, MTT test. Format: cell-based. As to conditions: 365 nm 30 seconds or 405 nm 60 seconds; normalized to non-irradiated m7GG; single determination. Here is the method:
3×10^4 cells in HeLa cell media (100 μL) were transferred in one well of a 96 well-plate. After 24 h the cells were transfected with Metafectene® Pro (0.3 μL) in MEM Earle's media (4.7 μL) and modified mRNA (0.1 μg) in MEM Earle's media (5 μL) for 6 h at 37° C. in a total volume of 100 μL. For subsequent toxicity assays, the media containing the transfection reagent was removed and cells were incubated overnight in fresh serum-free HeLa cell media. Cellular lethality was checked using the LDH Cytotoxicity Detection Kit, cellular viability was checked using the Vybrant® MTT Cell Proliferation Assay Kit (A volume of 100 μL 0.04 M HCl in 2-propanol was used instead of SDS-HCl solution to dissolve the formazan.) and cellular proliferation was checked using the BrdU Cell Proliferation Assay Kit. In each case, 24 h after transfection, absorbance was measured photometrically using the Tecan Infinite® M1000 Pro according to the manufacturer's instructions.
To evaluate the cell viability after irradiation, a MTT test was used as described above. HeLa cells were irradiated (5 V, 600 mA) with either 365 nm (m7GG 365, DMNB 365) or 405 nm (m7GG 405, DMNB 405) for 30 seconds (365 nm) or 60 seconds (405 nm). The values were normalized to the non-irradiated sample (m7GG).

Data set [2] concerns the target T1, T7 RNA polymerase (Escherichia phage T7, UniProt P00573).
T1 construct: purchased Thermo Scientific
Description: In vitro transcription of GLuc mRNA with cap analogs, gel analysis. The format is biochemical. As for the experimental part:
First, the DNA sequence coding for eGFP, Firefly luciferase (FLuc) or Gaussia luciferase (GLuc) mRNAs were amplified from pmRNA-vectors containing the respective sequence. After purification (NucleoSpin Gel and PCR Clean-up, Macherey-Nagel), the resulting linear dsDNA was used as template (200 ng) for in vitro T7 transcription performed in transcription buffer (40 mM Tris/HCl, 25 mM NaCl, 8 mM MgCl2, 2 mM spermidine(HCl)3) by adding either a A/C/UTP (0.5 mM) mix or a mix with modified nucleotides (A/m^5C/N^1-methylpseudo-UTP) (0.5 mM), GTP (0.25 mM), GpppG, m7GpppG, ApppG, DMNB or NPOM cap analog (1 mM), T7 RNA polymerase (50 U) (Thermo Scientific) and pyrophosphatase (0.1 U) (Thermo Scientific) for 4 h at 37° C. Remaining DNA template was digested in presence of 2 U DNase I for 1 h at 37° C. and then mRNAs were purified using the RNA Clean & Concentrator™-5 Kit (Zymo Research). To digest non-capped RNAs, 10 U of the RNA 5′-polyphosphatase (Epicentre) as well as the supplied reaction buffer were added to purified mRNAs. After an incubation period of 30 min at 37° C., 0.5 U of the 5′-3′ exoribonuclease XRN1 (NEB) and MgCl2 (5 mM) were added. The reaction mixture was incubated for 60 min at 37° C. Subsequently, capped mRNAs were purified using the RNA Clean & Concentrator™-5 Kit (Zymo Research).
The photocleavable 5′-cap analogs of formulas (12) and (18) were used for in vitro transcription of GLuc mRNA as described above and analysed via agarose gel electrophoresis.
“M” denotes Riboruler low range RNA ladder.

For data set [3], the system named is Reticulocyte Lysate. Description: In vitro translation of capped FLuc-mRNA and luminescence measurement. Format: biochemical. Particulars: capped FLuc-mRNA. Here is the method:
In vitro translation was performed using a eukaryotic cell free protein expression kit from Reticulocyte Lysate (Invitrogen). Experiments were performed in 12.5 μL total volume containing 20 ng of the corresponding FLuc-mRNAs, 50 μM L-methionine and 150 mM potassium acetate. Samples were mixed with 8.5 μL of the reticulocyte lysate and incubated for 90 min at 30° C. Afterwards, 2 μL of the respective translation mix were used in subsequent luminescence measurement. The translation efficiency of the reporter mRNAs was assessed in a luciferase assay using Beetle-juice Luciferase Assay Firefly (pjk). Luciferase activity was determined by adding 50 μL freshly prepared substrate solution to the translation mixture. Luminescence was monitored using a Tecan Infinite® m1000pro microplate reader with an acquisition time of 3 s (duration of signal acquisition).
The photocleavable 5′-cap analog of formula (7) was used for in vitro transcription to make FLuc mRNA as described above. This was used for in vitro translation and Luminescence measurement as described above. The commercial non-modified cap analog denoted “m^7GpppG” (Jena Bioscience) was used as positive control. Samples were irradiated for 30 seconds. The ApppG capped mRNA, which is not recognized by the translation initiation factor served as negative control, which is substracted from the other samples as it represents background activity. The experiment was performed in quadruplicates. The FLuc-mRNA capped with the photocleavable 5′-cap analog of formula (7) is denoted “ONB”.
The in vitro translation assay and luminescence measurement was performed as described above using the photocleavable 5′-cap analog of formula (12). The capped mRNA was denoted “DMNB-m^7GpCH2ppG capped FLuc-mRNA”. Samples were irradiated for 30 seconds (365 nm) or 60 seconds (405 nm). The commercial non-modified cap analog denoted “m^7GpppG” (Jena Bioscience) was used as positive control and all other samples were normalized to it. The ApppG capped mRNA, which is not recognized by the translation initiation factor served as negative control, which is substracted from the other samples as it represents background activity. The experiment was performed in triplicates, except *DMNB-m7GpCH2ppG (365 nm) which was a single determination.
The in vitro translation assay in reticulocyte lysate and luminescence measurement was performed as described above using m^7GpppG capped FLuc-mRNA caged with the photocleavable 5′-cap analog of formulas (22) and (25) (denoted “DMNB m^7GpppG” and “NPOM m^7GpppG”). Samples were irradiated for 30 seconds at 365 nm. The ApppG capped mRNA, which is not recognized by the translation initiation factor served as negative control, which was substracted from the other samples as it represents background activity. The values were normalized to the non-irradiated sample with m^7GpppG capped mRNA (100%). The experiment was performed in triplicates.
The in vitro translation assay in reticulocyte lysate and luminescence measurement was performed as described above using m^7GpppG capped FLuc-mRNA with modified nucleotides m^5C and N^1methyl-pseudouridine caged with the photocleavable 5′-cap analog of formulas (22) and (25) (denoted “DMNB m^7GpppG mod” and “NPOM m^7GpppG mod”). Samples were irradiated for 30 seconds at 365 nm. The ApppG capped mRNA, which is not recognized by the translation initiation factor served as negative control, which was substracted from the other samples as it represents background activity. The values were normalized to the non-irradiated sample with m^7GpppG capped mRNA (100%). The experiment was performed in triplicates.

T1 sequence (P00573 whole entry): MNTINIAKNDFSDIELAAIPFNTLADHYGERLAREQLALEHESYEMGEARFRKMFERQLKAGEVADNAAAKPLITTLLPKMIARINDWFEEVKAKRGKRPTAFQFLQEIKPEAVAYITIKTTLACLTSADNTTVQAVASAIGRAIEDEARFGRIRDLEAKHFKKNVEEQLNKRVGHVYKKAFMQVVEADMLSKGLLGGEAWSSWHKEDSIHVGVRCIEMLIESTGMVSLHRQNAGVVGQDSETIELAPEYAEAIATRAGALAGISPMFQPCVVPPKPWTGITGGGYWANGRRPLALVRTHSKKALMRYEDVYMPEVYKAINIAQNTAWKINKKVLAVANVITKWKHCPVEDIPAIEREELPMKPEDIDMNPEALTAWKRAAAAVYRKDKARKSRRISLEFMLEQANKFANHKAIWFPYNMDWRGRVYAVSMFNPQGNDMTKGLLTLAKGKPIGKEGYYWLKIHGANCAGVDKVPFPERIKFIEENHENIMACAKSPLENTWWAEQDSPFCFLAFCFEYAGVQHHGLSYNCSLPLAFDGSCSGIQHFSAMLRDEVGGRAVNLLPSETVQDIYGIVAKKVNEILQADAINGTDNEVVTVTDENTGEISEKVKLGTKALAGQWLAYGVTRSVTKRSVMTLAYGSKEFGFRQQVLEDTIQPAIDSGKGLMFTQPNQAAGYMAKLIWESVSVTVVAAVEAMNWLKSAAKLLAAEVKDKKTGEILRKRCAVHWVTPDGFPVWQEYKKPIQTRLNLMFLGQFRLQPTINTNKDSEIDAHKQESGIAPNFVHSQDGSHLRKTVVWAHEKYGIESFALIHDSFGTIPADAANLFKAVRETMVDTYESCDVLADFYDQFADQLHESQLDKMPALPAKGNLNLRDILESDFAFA

As to `COc1cc(COC(=O)Nc2nc3c(c(=O)[nH]2)[n+](C)cn3[C@@H]2O[C@H](COP(=O)(O)CP(=O)(O)OP(=O)(O)OC[C@H]3O[C@@H](n4cnc5c(=O)[nH]c(N)nc54)C(O)C3O)C(O)C2O)c([N+](=O)[O-])cc1OC` (stereo partly shown) [compound 12, P1-(N^2-(4,5-Dimethoxy-2-nitrobenzyl)oxycarbonyl-7-methylguanosin-5′-yl)-P3-guanosin-5′-yl 1,2-methylenetriphosphate], the “cell viability (MTT)” value in data set [1] was “only slightly decreased”. In addition, in data set [2], the “incorporation of cap analog into RNA” value was “incorporated into the RNA”. Besides, in data set [3] (30 seconds (365 nm) or 60 seconds (405 nm)), the “in vitro translation (luminescence) after irradiation” value is “partially restored”. Further, in data set [3] (non-irradiated, normalized to m^7GpppG capped mRNA), the “in vitro translation (luminescence), non-irradiated” value was “successfully inhibited to a high degree”.
